Data from patent US20130011845A1, “MICRORNA REGULATING THE INSULIN SIGNALING PATHWAY, AND METHOD FOR SCREENING MATERIAL FOR CONTROLLING THE ACTION OF A TARGET THEREOF” (SNU R & DB Foundation, priority 2009, published 2013).
Blank lines part the entries; values can stand above or below the molecule they belong to. d = 2'-deoxy (DNA); r = 2'-OH (RNA)

What was measured:
Akt = assay: western blotting of p-Akt in FAO cell lines; assay type: cell-based; details: compared to siGFP
FOXO [1] = assay: FOXO luciferase reporter (pFK1tk-luc) assay in Hep3B cells; assay type: cell-based, human
Excerpt: The inventors analyzed the effect of miR-200 miRNAs on the downstream transducers of Akt (see FIGS. 44 to 47). Because Akt represses FOXO activity, the inventors used a luciferase reporter plasmid (pFK1tk-luc) (Biggs, W H et al., 1999, Proc Natl Acad Sci USA 96, 7421-7426) containing eight FOXO-binding sites to determine the level of FOXO activity in cultured cells. Specifically, Hep3B cells were transfected with synthesized siGFP, miR-141, miR-200a, miR-200b, miR-200c, miR-429 or siFOG2 together with pFK1tk-luc vector, and then luciferase activity was measured in the same manner as described Example 8-2. Also, Hep3B cells were transfected with luciferase, or oligonucleotides having complementary sequence to miR-141, miR-200a, miR-200b, miR-200c or miR-429 together with pFK1tk-luc vector. Then, the luciferase activity was measured in the same manner as described above. Further, Hep3B cell lines were transfected with pCK-flag (empty vector) and pCK-FOG2 produced in Example 16-1, and the luciferase activity was measured in the same manner as described above. […] Further, treating the cells with miR-200 inhibitors elevated FOXO activity (see FIG. 46).

FOXO [2] = assay: FOXO activity in Huh7 cell lines transfected with miR-200 and treated with kinase inhibitors; assay type: cell-based, human; details: Huh7 cell lines transfected with miR-141/200a or miR-200b/c/429, inhibitor at 10 μM
PTPRD 3′UTR = assay: dual-luciferase 3′UTR reporter assay, pAC-PTPRD; assay type: cell-based; details: luciferase reporter with PTPRD 3′UTR, human Hela cell lines; average of at least two independent experiments
Description: (§1) In order to determine whether the target genes identified in Example 7 are in actuality targets of miR-8 and miR-200 family miRNAs, the inventors performed cloning. In other words, […] containing the miRNA target sites. Specifically, in order to obtain cDNAs of respective target genes, from drosophila S2 cell lines or human Hela cell lines, total RNA was extracted by using RNeasy mini kit (QIAGEN, US). 1 μg of total RNA and 1 μl of Oligo-dT (Invitrogen, US) were charged with up to 50 μl of distilled water, and placed into SuperScript First-Strand Synthesis System (Invitrogen, US), followed by RT-PCR reaction. Through the reaction at 65° C. for 6 min, at 4° C. for 5 min, at 42° C. for 60 min, at 95° C. for 5 min, and at 4° C. for 5 min, cDNA was synthesized. By using the cDNA (3˜5 μg) as template, and using a primer pair on respective genes noted in Table 3 and PCR Mastermix (Promega, US), PCR was performed on 3′UTR of ush, Lap1, CG8445, dbo, Lar, Ced-12, CG12333, cbt, FOG2, SEPT7, RIN2, SHC1, HOXB5, LF11, TCF7L1, ERBB21P, ELMO2, BAP1, WDR37, KLHL20, PTPRD, RASSF2 and VAC14 from among the target genes selected in Example 7. Herein, PCRP on atro as a drosophila control gene was also performed. After the reaction was completed, the PCR product on each gene's 3′UTR region was cleaved by each of the following restriction enzymes:
(§2) Then, it was cloned into pAC5.1 luciferase vector (a kind gift of Elisa Izaurralde) cleaved by the same restriction enzymes so as to produce a reporter plasmid having a miR-8 or miR-200 family target sequence in luciferase gene's 3′UTR sequence.
(§3) Reporter plasmids and renilla luciferase expression vectors (Promega, US), as noted in Table 4, and miRNAs of miR-200 family of miR-141, miR-200a (hsa-miR-200a, SEQ ID: 87: 5′-[…]-3′), miR-200b, miR-200c (has-miR-200c, SEQ ID: 88: 5′-[…]-3′) and miR-429, and miR-8 (dme-miR-8, SEQ ID: 89: 5′-[…]-3′) were bought from Samchonri and cotransfected into drosophila S2 cell lines or human Hela cell lines. Then, the activities of luciferase were measured through dual-luciferase assay (Promega, US) by a luminometer (Biorad). Then, 7 gene pairs that respond both to miR-8 and to mir-200 family miRNAs in Drosophila and human cells, respectively were identified (see FIG. 15).

ELMO2 3′UTR = assay: dual-luciferase 3′UTR reporter assay, pAC-ELMO2; assay type: cell-based; details: luciferase reporter with ELMO2 3′UTR, human Hela cell lines; average of at least two independent experiments
Description: as §1, §2, §3

HOXB5 3′UTR = assay: dual-luciferase 3′UTR reporter assay, pAC-HOXB5; assay type: cell-based; details: luciferase reporter with HOXB5 3′UTR, human Hela cell lines; average of at least two independent experiments
Description: as §1, §2, §3

WDR37 3′UTR = assay: dual-luciferase 3′UTR reporter assay, pAC-WDR37; assay type: cell-based; details: luciferase reporter with WDR37 3′UTR, human Hela cell lines; average of at least two independent experiments
Description: as §1, §2, §3

KLF11 3′UTR = assay: dual-luciferase 3′UTR reporter assay, pAC-KLF11; assay type: cell-based; details: luciferase reporter with KLF11 3′UTR, human Hela cell lines; average of at least two independent experiments
Description: as §1, §2, §3

SHC1 3′UTR = assay: dual-luciferase 3′UTR reporter assay, pAC-SHC1; assay type: cell-based; details: luciferase reporter with SHC1 3′UTR, human Hela cell lines; average of at least two independent experiments
Description: as §1, §2, §3

ERBB2IP 3′UTR = assay: dual-luciferase 3′UTR reporter assay, pAC-ERBB2IP; assay type: cell-based; details: luciferase reporter with ERBB2IP 3′UTR, human Hela cell lines; average of at least two independent experiments
Description: as §1, §2, §3

Hep3B cells = assay: MTT cellular viability assay; assay type: cell-based, human; details: Hep3B cells transfected with 30 nM
Description: Because stimulation of PI3K and Akt is known to facilitate cell proliferation and antagonize apoptosis (Pollak, 2008), the inventors measured cellular viability with the MTT (3-(4,5-dimethylthiazol-2-yl)-2,5-diphenyltetrazolium bromide) assay in Hep3B cells. Specifically, Hep3B cells were plated in a 96-well plate, and transfected with 30 nM of synthesized siGFP, miR-141, miR-200a, miR-200b, miR-200c, miR-429 or siFOG2. Then, to the plate, 50 μl of MTT solution (2 mg/ml) (Promega, US) was added per each well, followed by culturing at 37 °C for 1 hour. Then, each well was added with 150 μl of DMSO, and measured by a microplate reader (Bio-rad, US) at a wavelength of 590 nm. Also, Hep3B cells were transfected with 200 nM of luciferase, or 200 nM of oligonucleotides having complementary sequences to miR-141, miR-200a, miR-200b, miR-200c or miR-429, and then were subjected to MTT assay in the same manner as described above.

BAP1 3′UTR = assay: dual-luciferase 3′UTR reporter assay, pAC-BAP1; assay type: cell-based; details: luciferase reporter with BAP1 3′UTR, human Hela cell lines; average of at least two independent experiments
Description: as §1, §2, §3

TCF7L1 3′UTR = assay: dual-luciferase 3′UTR reporter assay, pAC-TCF7L1; assay type: cell-based; details: luciferase reporter with TCF7L1 3′UTR, human Hela cell lines; average of at least two independent experiments
Description: as §1, §2, §3

FOG2 3′UTR = assay: dual-luciferase 3′UTR reporter assay, pAC-FOG2; assay type: cell-based; details: luciferase reporter with FOG2 3′UTR, human Hela cell lines; average of at least two independent experiments
Description: as §1, §2, §3

SEPT7 3′UTR = assay: dual-luciferase 3′UTR reporter assay, pAC-SEPT7; assay type: cell-based; details: luciferase reporter with SEPT7 3′UTR, human Hela cell lines; average of at least two independent experiments
Description: as §1, §2, §3

RASSF2 3′UTR = assay: dual-luciferase 3′UTR reporter assay, pAC-RASSF2; assay type: cell-based; details: luciferase reporter with RASSF2 3′UTR, human Hela cell lines; average of at least two independent experiments
Description: as §1, §2, §3

KLHL20 3′UTR = assay: dual-luciferase 3′UTR reporter assay, pAC-KLHL20; assay type: cell-based; details: luciferase reporter with KLHL20 3′UTR, human Hela cell lines; average of at least two independent experiments
Description: as §1, §2, §3

RIN2 3′UTR = assay: dual-luciferase 3′UTR reporter assay, pAC-RIN2; assay type: cell-based; details: luciferase reporter with RIN2 3′UTR, human Hela cell lines; average of at least two independent experiments
Description: as §1, §2, §3

VAC14 3′UTR = assay: dual-luciferase 3′UTR reporter assay, pAC-VAC14; assay type: cell-based; details: luciferase reporter with VAC14 3′UTR, human Hela cell lines; average of at least two independent experiments
Description: as §1, §2, §3

p85α = target: T1, p85α (Homo sapiens, UniProt P27986); assay: in vitro binding assay with GST-fused recombinant p85α; details: purified GST-fused recombinant p85α protein
T1 construct: GST (N); made in house; host or cells: E. coli BL21
T1 sequence (P27986 whole entry, the tested form may be a part): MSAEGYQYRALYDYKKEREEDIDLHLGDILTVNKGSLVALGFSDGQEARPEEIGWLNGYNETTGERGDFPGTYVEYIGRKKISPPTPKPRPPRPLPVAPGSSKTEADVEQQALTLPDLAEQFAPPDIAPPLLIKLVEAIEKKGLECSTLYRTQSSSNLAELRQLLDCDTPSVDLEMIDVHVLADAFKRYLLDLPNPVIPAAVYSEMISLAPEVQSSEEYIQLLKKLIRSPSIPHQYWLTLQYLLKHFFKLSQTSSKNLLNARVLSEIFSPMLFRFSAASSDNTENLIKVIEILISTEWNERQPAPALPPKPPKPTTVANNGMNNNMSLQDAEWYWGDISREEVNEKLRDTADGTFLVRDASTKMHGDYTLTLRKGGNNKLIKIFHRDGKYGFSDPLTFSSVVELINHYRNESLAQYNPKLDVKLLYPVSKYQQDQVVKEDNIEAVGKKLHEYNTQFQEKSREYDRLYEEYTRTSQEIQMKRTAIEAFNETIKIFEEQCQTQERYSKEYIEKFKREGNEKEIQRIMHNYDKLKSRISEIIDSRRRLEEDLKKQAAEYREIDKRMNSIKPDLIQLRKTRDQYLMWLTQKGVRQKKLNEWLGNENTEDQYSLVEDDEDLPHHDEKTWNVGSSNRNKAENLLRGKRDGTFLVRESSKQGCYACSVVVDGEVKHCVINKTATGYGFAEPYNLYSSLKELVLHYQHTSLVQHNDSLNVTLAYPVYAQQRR
Excerpt: In order to test whether FOG2 directly binds to p85α, the inventors cleaved PCR product on p85α gene (obtained from Example 20-1) by BamHI and EcoRI, and cloned into pGEX5X-1 vector (GE Healthcare, US) cleaved by the same restriction enzymes so as to produce GST-fused recombinant p85α expression vector. The expression vector was transfected into BL21 (Promega, US) through electroporation, and according to a known method, the […] protein was expressed and purified from bacteria (Studier, F. W. et al., 1986, J. Mol. Biol. 189, 113-130), and was used in the following in vitro binding assay, along with purified GST-fused recombinant p85α protein.

PI3K = target: T2, PI3K (Homo sapiens, UniProt P27986); assay: in vitro PI3K assay on immunoprecipitated PI3K complex; assay type: biochemical; details: recombinant protein added to the immunoprecipitated PI3K complex
T2 construct: endogenous in cells; host or cells: Hep3B cell lysate (method paragraph)
T2 sequence (P27986 whole entry): as the sequence (P27986 whole entry, the tested form may be a part) above

Molecule: 5′-UUAUUCAAGUCCAUCUUCCdTdT-3′ (UUAUUCAAGUCCAUCUUCCTT; siRNA; sugars from the 5' end r19 d2, backbone not given here) [siFOG2]
p-Akt levels (Akt): increased p-Akt levels
FOXO activity (activity of luciferase, pFK1tk-luc) (FOXO [1]): significantly repressed

Molecule: O=C1c2ccccc2-c2n[nH]c3cccc1c23 [SB600125]
miR-200-mediated FOXO regulation (FOXO activity) (FOXO [2]): did not affect miR-200-mediated FOXO regulation

Molecule: N#CC(=C(/N)Sc1ccccc1N)/C(C#N)=C(\N)Sc1ccccc1N [U0126]
miR-200-mediated FOXO regulation (FOXO activity) (FOXO [2]): did not affect miR-200-mediated FOXO regulation

Represion fold, PTPRD (PTPRD 3′UTR): 0.97 fold
Represion fold, ELMO2 (ELMO2 3′UTR): 0.86 fold
Represion fold, HOXB5 (HOXB5 3′UTR): 0.87 fold
Represion fold, WDR37 (WDR37 3′UTR): 1.21 fold
Represion fold, KLF11 (KLF11 3′UTR): 1.07 fold
Represion fold, SHC1 (SHC1 3′UTR): 1.85 fold
Represion fold, ERBB2IP (ERBB2IP 3′UTR): 0.59 fold
Represion fold, BAP1 (BAP1 3′UTR): 0.74 fold
Represion fold, TCF7L1 (TCF7L1 3′UTR): 0.80 fold
Represion fold, FOG2 (FOG2 3′UTR): 0.32 fold
Represion fold, SEPT7 (SEPT7 3′UTR): 1.29 fold
Represion fold, RASSF2 (RASSF2 3′UTR): 0.99 fold
Represion fold, KLHL20 (KLHL20 3′UTR): 0.69 fold
Represion fold, RIN2 (RIN2 3′UTR): 1.30 fold
Represion fold, VAC14 (VAC14 3′UTR): 1.20 fold
Molecule: 5′-UAAUACUGCCGGGUAAUGAUGGA-3′ [miR-200c]
cell viability (MTT) (Hep3B cells): increased cell viability
FOXO activity (activity of luciferase, pFK1tk-luc) (FOXO [1]): significantly repressed

binding to recombinant p85α (p85α): specifically bound to recombinant p85α
B1: recombinant FOG2 protein: recombinant FOG2 protein containing the middle region of FOG2 (413-789 aa), expressed and purified from bacteria (protein, UniProt Q8WW38 413-789, looked up, fragment)
chain: DLLTRSELPQSQKAMQTKDASSDTELDKCEKKTQLFLTNQRPEIQPTTNKQSFSYTKIKSEPSSPRLASSPVQPNIGPSFPVGPFLSQFSFPQDITMVPQASEILAKMSELVHRRLRHGSSSYPPVIYSPLMPKGATCFECNITFNNLDNYLVHKKHYCSSRWQQMAKSPEFPSVSEKMPEALSPNTGQTSINLLNPAAHSADPENPLLQTSCINSSTVLDLIGPNGKGHDKDFSTQTKKLSTSSNNDDKINGKPVDVKNPSVPLVDGESDPNKTTCEACNITFSRHETYMVHKQYYCATRHDPPLKRSASNKVPAMQRTMRTRKRRKMYEMCLPEQEQRPPLVQQRFLDVANLNNPCTSTQEPTEGLGECYHPRCD
PI3K activity (PI3K): significantly inhibited the PI3K activity
